Laboratory results from patent US8637237B2, “Methods, compositions, and systems for the identification of species-specific or developmental stage-specific insecticides” (The University of North Carolina at Greensboro, priority 2003, dated 2014).

Molecular target: T1, FXR (Rattus norvegicus, UniProt Q62735)
T1 sequence (Q62735 1-469): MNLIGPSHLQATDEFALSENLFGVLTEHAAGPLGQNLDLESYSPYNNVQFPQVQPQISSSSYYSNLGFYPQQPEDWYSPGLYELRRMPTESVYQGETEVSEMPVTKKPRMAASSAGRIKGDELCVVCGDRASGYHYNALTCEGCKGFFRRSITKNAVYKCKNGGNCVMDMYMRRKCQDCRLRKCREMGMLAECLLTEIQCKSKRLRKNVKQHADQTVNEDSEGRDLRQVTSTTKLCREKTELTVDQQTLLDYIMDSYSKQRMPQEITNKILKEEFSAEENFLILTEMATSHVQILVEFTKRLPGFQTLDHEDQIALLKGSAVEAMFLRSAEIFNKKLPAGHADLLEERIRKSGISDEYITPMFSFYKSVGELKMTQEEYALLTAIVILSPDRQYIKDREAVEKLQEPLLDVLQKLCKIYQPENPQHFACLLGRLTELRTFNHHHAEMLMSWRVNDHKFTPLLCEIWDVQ
T1 sequence (P28700 1-467 partner): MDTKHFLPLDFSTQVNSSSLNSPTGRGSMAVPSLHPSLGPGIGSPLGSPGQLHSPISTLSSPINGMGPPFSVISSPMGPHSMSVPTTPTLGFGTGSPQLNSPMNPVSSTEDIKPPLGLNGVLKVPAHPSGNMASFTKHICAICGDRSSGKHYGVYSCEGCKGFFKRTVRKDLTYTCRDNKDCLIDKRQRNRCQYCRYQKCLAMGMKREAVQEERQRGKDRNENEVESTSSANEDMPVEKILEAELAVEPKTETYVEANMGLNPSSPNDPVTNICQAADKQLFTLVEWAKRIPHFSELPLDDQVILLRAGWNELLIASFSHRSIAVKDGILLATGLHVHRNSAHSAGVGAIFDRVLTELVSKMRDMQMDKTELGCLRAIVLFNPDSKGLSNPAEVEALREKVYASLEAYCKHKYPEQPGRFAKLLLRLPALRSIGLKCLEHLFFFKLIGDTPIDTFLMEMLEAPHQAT
Experiment: cell-based
Description: These experiments employed a mammalian cell culture system using Chinese hamster ovary cells (CHO) to evaluate the transcriptional function of Drosophila melanogaster EcR and USP using methods described previously (U.S. Patent Application Publication No: 2005/0049230; Henrich et al, 2003). Cells were seeded in 6-well polypropylene culture plates (Falcon) with 10^5 cells per well on the day prior to transfection. Transfection was subsequently performed using either calcium phosphate (Kitareewan et al., 1996, Mol. Biol. Cell, 7:1153-1196) or a GenePorter reagent (Gene Therapy Systems, Inc; San Diego, Calif.) following manufacturer's protocols. Each well received 1.25 μg of (EcRE)5-ΔMTV-CAT (five copies of the hsp27 EcRE inserted into an mouse mammary tumor virus (MTV) promoter upstream of the chloramphenicol acetyltransferase (CAT) gene) or (EcRE)5-ΔMTV-LUC (the same promoter attached to firefly luciferase), 1.25 μg of pCH111 (SV40 early promoter linked to the β-galactosidase gene) to normalize CAT activity, and 0.25 μg of each expression plasmid (EcR, FXR, RXR, USP) that was tested. The cells were incubated with plasmid DNA for seven hours and then washed with 1×PBS. Muristerone A (murA; Alexis Biochemicals) or 20-hydroxyecdysone (20E; Sigma) dissolved in ethanol to a concentration of 10 mM was diluted as necessary to the final assay concentration (FAC) in 2 ml of fresh incubation medium that was then applied to the cells. Similarly, JHIII (Sigma) was dissolved in dimethyl sulfoxide (DMSO) to a concentration of […] and diluted into the incubation medium to its final assay concentration (20, 40, 80, 160 μM). […] A corresponding volume of ethanol and DMSO were added to control cells for all experiments. For all experiments, the cells were allowed to incubate with the medium for 24 hours before collection and cell lysates were prepared by described methods (Kitareewan et al., 1996). Both β-galactosidase and CAT reporter activity were measured based on previously used methods (Kitareewan et al, 1996). Luciferase assays using luciferrin followed the specifications of the manufacturer.
Transcriptional activity, measured as ^14C-chloramphenicol counts (for measuring CAT activity) or relative luciferase activity (RLU) was quantified for each cell lysate. The counts were then normalized by adjusting for differences in β-galactosidase activity, since β-galactosidase expression is controlled by a constitutive promoter and provides an estimate of cell mass. Data were normalized as fold-induction based on differences in reporter gene activity between hormonally treated and control cells.
In these experiments, candidate juvenoids were tested for their ability to activate FXR mediated transcription by transfecting Chinese hamster ovary (CHO) cells using the FXR plasmid, mouse RXRα, and the ΔMTV-(EcRE)5-CAT reporter as described herein. An RXR-dependent CRBPII-CAT reporter plasmid was employed in parallel assays to discern activators specific for this receptor.

[1] = dose 20 μM, 1 = no increase over vehicle

Structure (SMILES): CC(C)(O)/C=C/C(=O)[C@](C)(O)[C@H]1[C@H](O)C[C@@]2(C)[C@@H]3CC=C4[C@@H](C=C(O)C(=O)C4(C)C)[C@]3(C)C(=O)C[C@]12C [cucurbitacin I]
- IC50 (read-out: IC50, inhibition of farnesol-induced FXR activity, data not shown): ~0.05 µM

Structure (SMILES): COc1cc(/C=C/C(=O)CC(=O)/C=C/c2ccc(O)c(OC)c2)ccc1O [curcumin]
- FXR-dependent activity, induction (dose not stated): ineffective

Structure (SMILES): CCCC(=O)Nc1ncnc2c1ncn2[C@@H]1O[C@@H]2COP(=O)(O)O[C@H]2[C@H]1OC(=O)CCC [dibutyryl cAMP]
- FXR-dependent activity, induction (1 mM): 4 fold

Structure (SMILES): C[C@H]([C@H](O)CCC(C)(C)O)[C@H]1CC[C@@]2(O)C3=CC(=O)[C@@H]4C[C@@H](O)[C@@H](O)C[C@]4(C)[C@H]3CC[C@]12C [ecdysone]
- FXR-dependent activity, induction (dose not stated): unresponsive

Structure (SMILES): C=CC(C)(O)CCCC/C=C(\C)CC(C)=O (stereo not shown) [echinolone]
- FXR-dependent activity, maximal induction (maximal (highest non-cytotoxic) dose): 7 fold

Structure (SMILES): CC12CCC(C1)C(C)(C)C2=O (stereo not shown) [fenchone]
- FXR-dependent activity, induction (0.5 mM): inactive

Structure (SMILES): CC12CCC(C1)C(C)(C)C2O (stereo not shown) [fenchyl alcohol]
- FXR-dependent activity, induction (0.5 mM): 5 fold

Structure (SMILES): N#Cc1nn(-c2c(Cl)cc(C(F)(F)F)cc2Cl)c(N)c1[S+]([O-])C(F)(F)F (stereo not shown) [fipronil]
- FXR-dependent activity, induction (25 μM): 20 fold

Structure (SMILES): O=c1c(-c2ccc(O)cc2)coc2cc(O)cc(O)c12 [genistein]
- FXR-dependent CAT activity, induction (50 μM): unresponsive

Structure (SMILES): O=c1c(O)c(-c2ccc(O)c(O)c2)oc2c(O)c(O)cc(O)c12 [gossypetin]
- FXR-dependent CAT activity, induction (50 μM): unresponsive

Structure (SMILES): O=c1[nH]cnc2nc[nH]c12 [hypoxanthine]
- FXR-dependent activity, induction (dose not stated): ineffective

Structure (SMILES): O=[N+]([O-])NC1=NCCN1Cc1ccc(Cl)nc1 [imidacloprid]
- FXR-dependent activity, induction (dose not stated): unaffected

Structure (SMILES): COP(=S)(OC)SCN1C(=O)c2ccccc2C1=O [imidan]
- FXR-dependent activity, induction (dose not stated): inactive

Structure (SMILES): CC1=C[C@]23C(=O)[C@@H](C=C(COC(=O)c4ccccc4)[C@@H](O)[C@]2(O)[C@H]1OC(=O)c1ccccc1)[C@H]1[C@@H](C[C@H]3C)C1(C)C [ingenol-3,20-dibenzoate]
- FXR-dependent activity, induction (10 μM): 5 fold
- FXR ACTIVITY (fold-induction) (dose 10 μM): 5 fold-induction

Structure (SMILES): CC1=C[C@]23C(=O)[C@@H](C=C(CO)[C@@H](O)[C@]2(O)[C@H]1O)[C@H]1[C@@H](C[C@H]3C)C1(C)C [ingenol]
- FXR-dependent activity, induction (dose not stated): inactive

Structure (SMILES): CC/C=C\C[C@H]1C(=O)CC[C@@H]1CC(=O)O [jasmonic acid]
- FXR-dependent activity, induction (1 mM): no effect

Structure (SMILES): COC(=O)C1=CC[C@H]([C@H](C)CC(=O)CC(C)C)CC1 [juvabione]
- RXR mediated transcription, increase (plant-derived JH agonists examined as FXR effectors): 3 fold

Structure (SMILES): C[C@@]12C=Cc3occc3[C@H]1CC[C@@]13C[C@@H](CC[C@H]12)[C@@](O)(CO)C3 [kahweol]
- FXR ACTIVITY (fold-induction) [1]: 10 fold-induction

Structure (SMILES): O=C1C2(Cl)C3(Cl)C4(Cl)C(Cl)(Cl)C5(Cl)C3(Cl)C1(Cl)C5(Cl)C24Cl (stereo not shown) [kepone]
- FXR-dependent CAT activity, induction (5 μM): 12 fold

Structure (SMILES): C=C(C)C1CCC2(C)OC2C1 (stereo not shown) [limonene oxide]
- FXR-dependent activity, induction (400 μM): inactive

Structure (SMILES): Cl[C@H]1[C@H](Cl)[C@@H](Cl)[C@@H](Cl)[C@H](Cl)[C@H]1Cl [lindane]
- FXR-dependent CAT activity, induction (5 μM): 5 fold

Structure (SMILES): CC1CCC(C(C)C)C(O)C1 (stereo not shown) [menthol]
- FXR-dependent activity, induction (0.5 mM): inactive

Structure (SMILES): CC/C=C\CC1C(=O)CCC1CC(=O)OC (stereo not shown) [methyl jasmonate]
- FXR-dependent activity, induction (1 mM): 17 fold
- FXR ACTIVITY (fold-induction) (dose 1000 μM): 18 fold-induction

Structure (SMILES): C=C(C)[C@@]12O[C@@]3(c4ccccc4)O[C@@H]1[C@@H]1[C@@H]4O[C@]4(CO)[C@@H](O)[C@]4(O)C(=O)C(C)=C[C@H]4[C@@]1(O3)[C@H](C)[C@H]2OC(=O)/C=C/C=C/c1ccccc1 [mezerein]
- FXR-dependent activity, induction (10 μM): 3 fold

Structure (SMILES): Clc1ccc(C(c2ccc(Cl)cc2)C(Cl)(Cl)Cl)cc1 [p,p-DDT]
- FXR-dependent CAT activity, induction (5 μM): not

Structure (SMILES): C=C(C)[C@@H]1CC=C(CO)CC1 [perillyl alchol, perillyl alcohol]
- FXR ACTIVITY (fold-induction) (dose 300 μM, 1 = no increase over vehicle): 4 fold-induction
- FXR-dependent activity, induction (dose not stated): 4 fold

Structure (SMILES): OCCc1ccccc1 [phenethyl alcohol]
- FXR-dependent activity, induction (400 μM): inert

Structure (SMILES): CC(C)=CC1C(C(=O)OCc2cccc(Oc3ccccc3)c2)C1(C)C (stereo not shown) [phenothrin]
- FXR-dependent activity, induction (25 μM): 8 fold

Structure (SMILES): CCCC(=O)O[C@@H]1[C@@H](C)[C@@]2(O)[C@@H](C=C(CO)C[C@]3(O)C(=O)C(C)=C[C@@H]23)[C@@H]2C(C)(C)[C@]12OC(=O)CCC [phorbol 12,13-dibutyrate]
- FXR-dependent activity, induction (10 μM): 2 fold

Structure (SMILES): CC1(C)[C@@H]2C[C@H]1[C@@](C)(O)[C@@H](O)C2 [pinane diol]
- FXR-dependent activity, induction (0.5 mM): 5 fold

Structure (SMILES): OCc1ccc2c(c1)OCO2 [piperonyl alcohol]
- FXR-dependent activity, induction (dose not stated): inactive

Structure (SMILES): O=C(O)c1ccc2c(c1)OCO2 [piperonylic acid]
- FXR-dependent activity, induction (dose not stated): inactive

Structure (SMILES): COc1cc2c(cc1OC)OC(C)(C)C=C2 [precocene II]
- FXR-dependent activity, induction (dose not stated): 15 fold
- EC50 (read-out: EC50 for FXR-dependent CAT activity): 150 µM

Structure (SMILES): CC(COc1ccc(Oc2ccccc2)cc1)Oc1ccccn1 (stereo not shown) [pyriproxyfen]
- FXR ACTIVITY (fold-induction) (final dose of 50 ∝M, 1 = induction less than 2-fold below cytotoxic doses): 9 fold-induction

Structure (SMILES): O=C(/C=C/c1ccc(O)c(O)c1)O[C@H](Cc1ccc(O)c(O)c1)C(=O)O [rosemarinic acid]
- FXR-dependent activity, induction (dose not stated): ineffective

Structure (SMILES): C=C(C)[C@H]1Cc2c(ccc3c2O[C@@H]2COc4cc(OC)c(OC)cc4[C@@H]2C3=O)O1 [rotenone]
- FXR ACTIVITY (fold-induction) [1]: 1 fold-induction
- FXR-dependent activity, induction (dose not stated): inactive

Structure (SMILES): COc1cc2c(cc1OC)[C@@H]1C(=O)c3ccc(O)c(CC=C(C)C)c3O[C@@H]1CO2 [rotenonic acid]
- FXR-dependent CAT activity, induction (20 μM): 20 fold
- FXR ACTIVITY (fold-induction) [1]: 20 fold-induction

Structure (SMILES): COc1cc(C2Oc3cc([C@H]4Oc5cc(O)cc(O)c5C(=O)[C@@H]4O)ccc3OC2CO)ccc1O (stereo partly shown) [silybin]
- FXR-dependent CAT activity, induction (50 μM): 18 fold
- FXR ACTIVITY (fold-induction) (dose 100 μM, 1 = no increase over vehicle): 10 fold-induction

Structure (SMILES): COc1ccc(-c2cc(=O)c3c(OC)c(OC)c(OC)c(OC)c3o2)cc1 [tangeretin]
- FXR-dependent CAT activity, induction (50 μM): 4 fold

Structure (SMILES): O=C1c2c(O)cc(O)cc2O[C@H](c2ccc(O)c(O)c2)[C@H]1O [taxifolin]
- FXR-dependent CAT activity, induction (50 μM): unresponsive

Structure (SMILES): Clc1cc2c(cc1Cl)Oc1cc(Cl)c(Cl)cc1O2 [tetrachloro- dibenzo-p- dioxin, 2,3,7,8-tetrachlorodibenzo-p-dioxin]
- FXR-dependent CAT activity, induction (100 nM): 15 fold
- FXR ACTIVITY (fold-induction) (dose 0.1 μM): 15 fold-induction

Structure (SMILES): Cn1cnc2c1c(=O)[nH]c(=O)n2C [theobromine]
- FXR-dependent activity, induction (dose not stated): ineffective

Structure (SMILES): O=c1[nH]c(=O)c2[nH]cnc2[nH]1 [xanthine]
- FXR-dependent activity, induction (dose not stated): ineffective

Structure (SMILES): CC(=O)/C=C/C1C(C)=CCCC1(C)C (stereo not drawn) [α-ionone]
- FXR ACTIVITY (fold-induction) (dose 150 μM): 10 fold-induction
